Reference: US12435091B2, “RNA-binding protein multimerization inhibitors and methods of use thereof” (THE UAB RESEARCH FOUNDATION, priority 2020, dated 2025)

Columns and labels:
Type in all cases: cell-based
[1] = tested on: JX12p neurospheres, HuR mRNA targets; assay: Illumina global RNA-sequencing of PDGx neurospheres; conditions: 3 uM, 12 hours, compared to control
Experimental: (§1) Illumina global RNA-sequencing data were generated by utilizing PDGx neurospheres, which have been treated with a compound as described herein (e.g., SRI-42127, 3 uM) for 12 hours or with vehicle as the control. RNA was isolated by using TRIzol reagent (Invitrogen; Carlsbad, CA). The RNA samples were processed.
(§2) RNA sequencing was performed on PDGx-derived glioma neurospheres representing the different molecular subtypes (classical, neuronal, and mesenchymal) after treatment with vehicle (control) or SRI-42127 (3 uM) for 12 hours. Analysis of direct HuR mRNA targets and their corresponding cell signaling pathways was performed. Table 9 illustrates the evaluated gene sets, representing direct HuR mRNA targets, and their corresponding cell signaling pathways.
(§3) The analysis of direct HuR mRNA targets and their corresponding cell signaling pathways has been performed by using gene sets, which have been defined as the direct HuR targets following tumor neurosphere treatment with DHTS, an established modulator of HuR/mRNA interaction (Lal et al., Nucleic Acid Research, 2017). […] Data are represented as average+standard deviation (Aver+SD). The significance was evaluated by using Student t-test.
(§4) The analysis was generated based on RNA-Seq data.

[2] = tested on: JX22p neurospheres, HuR mRNA targets; assay: as above; conditions: 3 uM, 12 hours, compared to control
Experimental: as §1, §2, §3, §4

[3] = tested on: X1524 neurospheres, HuR mRNA targets; assay: as above; conditions: 3 uM, 12 hours, compared to control
Experimental: as §1, §2, §3, §4

[4] = tested on: XD456 neurospheres, HuR mRNA targets; assay: as above; conditions: 3 uM, 12 hours, compared to control
Experimental: as §1, §2, §3, §4

[5] = tested on: inflammatory cytokine mRNAs in astrocytes; assay: inflammatory cytokine mRNAs in LPS-stimulated astrocytes
Experimental: Next, the impact of SRI-42127 on induction of inflammatory cytokine mRNAs as depicted in FIG. 15, Panel B was assessed. A significant 3-4-fold suppression of mRNA for IL-1β, IL-6, CXCL1, and CCL2 was observed. […] All chemokines were likewise suppressed, including KC, CCL2, CCL3, CCL4, CXCL10, from 2.5 to 8.1-fold.

CN(c1ccc2ncc(-c3ccc4cn[nH]c4c3)n2n1)C1CCOCC1 [Compound 19]
gene set average value, Activation of BH3-only proteins Homo sapiens_R-HSA-114452 [1]: 0.90 | gene set average value, Cell Cycle Check points_Homo Sapiens_R-HSA-69620 [1]: 0.58 | gene set average value, Cell Cycle, Mitotic_Homo Sapiens_R-HSA-69278 [1]: 0.58 | gene set average value, Cell Cycle_Homo sapiens_R-HSA-1640170 [1]: 0.57 | gene set average value, Cell cycle_Homo Sapiens_hsa04110 [1]: 0.64 | gene set average value, Cellular Senescence_Homo sapiens_R-HSA-2559583 [1]: 0.74 | gene set average value, Cellular responses to Stress_Homo sapiens_R-HSA-2262752 [1]: 0.61 | gene set average value, Deadenylation-dependent mRNA decay_Homo sapiens_R-HSA-429914 [1]: 0.71 | gene set average value, Developmental Biology_Homo sapiens_R-HSA-1266738 [1]: 0.52 | gene set average value, Epstein-Barr virus Infection_Homo Sapiens_hsa05169 [1]: 0.63 | gene set average value, G2/M Check points_Homo sapiens_R-HSA-69481 [1]: 0.60 | gene set average value, G2/M DNA damage Checkpoint_Homo sapiens_R-HSA-69473 [1]: 0.61 | gene set average value, Gene Expression_Homo Sapiens_R-HSA-2559583 [1]: 0.78 | gene set average value, HTLV-1 infection_Homo Sapiens_hsa05186 [1]: 0.67 | gene set average value, Intrinsic Pathway for Apoptosis_Homo sapiens_R-HSA-109606 [1]: 0.90 | gene set average value, MAPK signaling Pathway_Homo Sapiens_hsa04010 [1]: 0.63 | gene set average value, Membrane Trafficking_Homo sapiens_R-HAS-199991 [1]: 0.62 | gene set average value, Mitotic G1-G1/S phases_Homo sapiens_R-HSA-453279 [1]: 0.58 | gene set average value, P53 signaling pathway_Homo Sapiens_hsa04115 [1]: 1.21 | gene set average value, RHO GTPases Activate Formins_Homo sapiens_R-HSA-5663220 [1]: 0.48 | gene set average value, RHO GTPases Effectors_Homo sapiens_R-HSA-195258 [1]: 0.50 | gene set average value, RNA degradation_Homo Sapiens_hsa03018 [1]: 0.78 | gene set average value, Regulation of TP53 Activity through Phosphorylation_Homo sapiens_R-HSA-6804756 [1]: 0.63 | gene set average value, Regulation of TP53 Activity_Homo sapiens_R-HSA-109606 [1]: 0.89 | gene set average value, Signaling by Rho GTPases_Homo sapiens_R-HSA-194315 [1]: 0.49 | gene set average value, TP53 Regulates Metabolic Genes_Homo sapiens_R-HSA-5628897 [1]: 0.87 | gene set average value, Transcriptional Regulation by TP53_Homo sapiens_R-HSA-3700989 [1]: 0.93 | gene set average value, Translocation of GLUT4 to the plasma membrane_Homo sapiens_R-HSA-1445148 [1]: 0.71 | gene set average value, Activation of BH3-only proteins Homo sapiens_R-HSA-114452 [2]: 0.42 | gene set average value, Cell Cycle Check points_Homo Sapiens_R-HSA-69620 [2]: 0.35 | gene set average value, Cell Cycle, Mitotic_Homo Sapiens_R-HSA-69278 [2]: 0.32 | gene set average value, Cell Cycle_Homo sapiens_R-HSA-1640170 [2]: 0.36 | gene set average value, Cell cycle_Homo Sapiens_hsa04110 [2]: 0.37 | gene set average value, Cellular Senescence_Homo sapiens_R-HSA-2559583 [2]: 0.28 | gene set average value, Cellular responses to Stress_Homo sapiens_R-HSA-2262752 [2]: 0.27 | gene set average value, Deadenylation-dependent mRNA decay_Homo sapiens_R-HSA-429914 [2]: 0.31 | gene set average value, Developmental Biology_Homo sapiens_R-HSA-1266738 [2]: 0.32 | gene set average value, Epstein-Barr virus Infection_Homo Sapiens_hsa05169 [2]: 0.43 | gene set average value, G2/M Check points_Homo sapiens_R-HSA-69481 [2]: 0.39 | gene set average value, G2/M DNA damage Checkpoint_Homo sapiens_R-HSA-69473 [2]: 0.39 | gene set average value, Gene Expression_Homo Sapiens_R-HSA-2559583 [2]: 0.37 | gene set average value, HTLV-1 infection_Homo Sapiens_hsa05186 [2]: 0.47 | gene set average value, Intrinsic Pathway for Apoptosis_Homo sapiens_R-HSA-109606 [2]: 0.42 | gene set average value, MAPK signaling Pathway_Homo Sapiens_hsa04010 [2]: 0.31 | gene set average value, Membrane Trafficking_Homo sapiens_R-HAS-199991 [2]: 0.28 | gene set average value, Mitotic G1-G1/S phases_Homo sapiens_R-HSA-453279 [2]: 0.36 | gene set average value, P53 signaling pathway_Homo Sapiens_hsa04115 [2]: 0.24 | gene set average value, RHO GTPases Activate Formins_Homo sapiens_R-HSA-5663220 [2]: 0.26 | gene set average value, RHO GTPases Effectors_Homo sapiens_R-HSA-195258 [2]: 0.30 | gene set average value, RNA degradation_Homo Sapiens_hsa03018 [2]: 0.35 | gene set average value, Regulation of TP53 Activity through Phosphorylation_Homo sapiens_R-HSA-6804756 [2]: 0.34 | gene set average value, Regulation of TP53 Activity_Homo sapiens_R-HSA-109606 [2]: 0.31 | gene set average value, Signaling by Rho GTPases_Homo sapiens_R-HSA-194315 [2]: 0.30 | gene set average value, TP53 Regulates Metabolic Genes_Homo sapiens_R-HSA-5628897 [2]: 0.30 | gene set average value, Transcriptional Regulation by TP53_Homo sapiens_R-HSA-3700989 [2]: 0.31 | gene set average value, Translocation of GLUT4 to the plasma membrane_Homo sapiens_R-HSA-1445148 [2]: 0.40 | gene set average value, Activation of BH3-only proteins Homo sapiens_R-HSA-114452 [3]: 0.75 | gene set average value, Cell Cycle Check points_Homo Sapiens_R-HSA-69620 [3]: 0.66 | gene set average value, Cell Cycle, Mitotic_Homo Sapiens_R-HSA-69278 [3]: 0.67 | gene set average value, Cell Cycle_Homo sapiens_R-HSA-1640170 [3]: 0.66 | gene set average value, Cell cycle_Homo Sapiens_hsa04110 [3]: 0.75 | gene set average value, Cellular Senescence_Homo sapiens_R-HSA-2559583 [3]: 0.76 | gene set average value, Cellular responses to Stress_Homo sapiens_R-HSA-2262752 [3]: 0.70 | gene set average value, Deadenylation-dependent mRNA decay_Homo sapiens_R-HSA-429914 [3]: 0.84 | gene set average value, Developmental Biology_Homo sapiens_R-HSA-1266738 [3]: 0.72 | gene set average value, Epstein-Barr virus Infection_Homo Sapiens_hsa05169 [3]: 0.79 | gene set average value, G2/M Check points_Homo sapiens_R-HSA-69481 [3]: 0.66 | gene set average value, G2/M DNA damage Checkpoint_Homo sapiens_R-HSA-69473 [3]: 0.67 | gene set average value, Gene Expression_Homo Sapiens_R-HSA-2559583 [3]: 0.87 | gene set average value, HTLV-1 infection_Homo Sapiens_hsa05186 [3]: 0.88 | gene set average value, Intrinsic Pathway for Apoptosis_Homo sapiens_R-HSA-109606 [3]: 0.75 | gene set average value, MAPK signaling Pathway_Homo Sapiens_hsa04010 [3]: 0.76 | gene set average value, Membrane Trafficking_Homo sapiens_R-HAS-199991 [3]: 0.61 | gene set average value, Mitotic G1-G1/S phases_Homo sapiens_R-HSA-453279 [3]: 0.63 | gene set average value, P53 signaling pathway_Homo Sapiens_hsa04115 [3]: 1.07 | gene set average value, RHO GTPases Activate Formins_Homo sapiens_R-HSA-5663220 [3]: 0.65 | gene set average value, RHO GTPases Effectors_Homo sapiens_R-HSA-195258 [3]: 0.69 | gene set average value, RNA degradation_Homo Sapiens_hsa03018 [3]: 0.94 | gene set average value, Regulation of TP53 Activity through Phosphorylation_Homo sapiens_R-HSA-6804756 [3]: 0.64 | gene set average value, Regulation of TP53 Activity_Homo sapiens_R-HSA-109606 [3]: 0.77 | gene set average value, Signaling by Rho GTPases_Homo sapiens_R-HSA-194315 [3]: 0.72 | gene set average value, TP53 Regulates Metabolic Genes_Homo sapiens_R-HSA-5628897 [3]: 0.78 | gene set average value, Transcriptional Regulation by TP53_Homo sapiens_R-HSA-3700989 [3]: 0.81 | gene set average value, Translocation of GLUT4 to the plasma membrane_Homo sapiens_R-HSA-1445148 [3]: 0.69 | gene set average value, Activation of BH3-only proteins Homo sapiens_R-HSA-114452 [4]: 0.94 | gene set average value, Cell Cycle Check points_Homo Sapiens_R-HSA-69620 [4]: 0.48 | gene set average value, Cell Cycle, Mitotic_Homo Sapiens_R-HSA-69278 [4]: 0.54 | gene set average value, Cell Cycle_Homo sapiens_R-HSA-1640170 [4]: 0.52 | gene set average value, Cell cycle_Homo Sapiens_hsa04110 [4]: 0.60 | gene set average value, Cellular Senescence_Homo sapiens_R-HSA-2559583 [4]: 0.64 | gene set average value, Cellular responses to Stress_Homo sapiens_R-HSA-2262752 [4]: 0.53 | gene set average value, Deadenylation-dependent mRNA decay_Homo sapiens_R-HSA-429914 [4]: 0.58 | gene set average value, Developmental Biology_Homo sapiens_R-HSA-1266738 [4]: 0.49 | gene set average value, Epstein-Barr virus Infection_Homo Sapiens_hsa05169 [4]: 0.49 | gene set average value, G2/M Check points_Homo sapiens_R-HSA-69481 [4]: 0.47 | gene set average value, G2/M DNA damage Checkpoint_Homo sapiens_R-HSA-69473 [4]: 0.50 | gene set average value, Gene Expression_Homo Sapiens_R-HSA-2559583 [4]: 0.63 | gene set average value, HTLV-1 infection_Homo Sapiens_hsa05186 [4]: 0.61 | gene set average value, Intrinsic Pathway for Apoptosis_Homo sapiens_R-HSA-109606 [4]: 0.94 | gene set average value, MAPK signaling Pathway_Homo Sapiens_hsa04010 [4]: 0.54 | gene set average value, Membrane Trafficking_Homo sapiens_R-HAS-199991 [4]: 0.53 | gene set average value, Mitotic G1-G1/S phases_Homo sapiens_R-HSA-453279 [4]: 0.61 | gene set average value, P53 signaling pathway_Homo Sapiens_hsa04115 [4]: 1.19 | gene set average value, RHO GTPases Activate Formins_Homo sapiens_R-HSA-5663220 [4]: 0.48 | gene set average value, RHO GTPases Effectors_Homo sapiens_R-HSA-195258 [4]: 0.50 | gene set average value, RNA degradation_Homo Sapiens_hsa03018 [4]: 0.65 | gene set average value, Regulation of TP53 Activity through Phosphorylation_Homo sapiens_R-HSA-6804756 [4]: 0.35 | gene set average value, Regulation of TP53 Activity_Homo sapiens_ [4]: 0.44 | gene set average value, Signaling by Rho GTPases_Homo sapiens_R-HSA-194315 [4]: 0.45 | gene set average value, TP53 Regulates Metabolic Genes_Homo sapiens_R-HSA-5628897 [4]: 0.54 | gene set average value, Transcriptional Regulation by TP53_Homo sapiens_R-HSA-3700989 [4]: 0.64 | gene set average value, Translocation of GLUT4 to the plasma membrane_Homo sapiens_R-HSA-1445148 [4]: 0.53 | suppression of mRNA for IL-1β, IL-6, CXCL1, and CCL2 [5]: 3-4 fold | increase of IL-10 mRNA ([5]; 1.0 μM): ~3 fold
